Test results as given in patent US20230090255A1, “MAGL INHIBITOR, PREPARATION METHOD THEREFOR AND USE THEREOF” (LUNAN PHARMACEUTICAL GROUP CORPORATION, priority 2019, published 2023).

Assays:
[1] = system: mice with inflammatory pain; assay: Pain threshold of mice with inflammatory pain (complete Freund's adjuvant); assay type: in vivo, SD mice; conditions: for pain threshold of the mice with inflammatory pain, in words: compared with the model group; for Pain threshold: complete Freund's adjuvant paw model
Procedure: […] (180±20) g were injected with a complete Freund’s adjuvant (50 µL/piece) at the right rear plantar of mice, and mice in the control group were injected with the corresponding volume of 0.5% sodium carboxymethylcellulose to establish a paw edema inflammatory pain model. After modeling, the mice were administered for 7 d continuously, and administered intragastrically once per day. Pain thresholds (s) of the mice were respectively determined on the 1st, 3rd and 7th day before administration and after modeling at different periods of time.
Grouping and administration were the same as those of Example 40.

ulcerative colitis mice = assay: Mice ulcerative colitis (DSS); assay type: in vivo, BALB/c mice; conditions: for Total times of hematochezia within the four periods / Colon length / IL-1 content: DSS mice; for Colon length: four periods; for IL-1 content: serum, ELISA; for IL-1 content, in words / colon length, in words / total times of hematochezia, in words: compared with the model group
Description: Healthy male SPF-level BALB/c mice (8-week old and body mass: (20±2) g).
Modeling: the mice were randomly divided into […] at the end of the quarantine, 10 pieces for each group. The mice in the normal group drank normal water freely, and the rest groups of mice drank 1.0%-1.5% DSS solution freely for modeling, 7 d later after modeling, the mice in the modeling group drank normal water freely for 7 d, and 14 d served as a modeling period for four continuous periods, and the mice in the modeling group were administered at the same time.
End point of the experiment: experimental administration was performed for four periods, and dissection was performed on the 3rd and 4th day of the recovery period of the 4th period.
Test indicators: the mice were weighed twice a week after the beginning of the administration; diarrhea and hematochezia of the mice were observed, and times of hematochezia were recorded.
At the end of the experiment, the mice were dissected and weighed, and narcotized to take blood, then serum was preserved at -80° C. Spleen was taken and weighed to calculate the spleen index. The content of IL-1β in serum was detected via ELISA. Colorectum was cut and taken to measure the length of colorectum, then immobilized by formaldehyde and dyed by HE to detect the pathological change.

[2] = system: reserpine-induced mice migraine; assay: Reserpine-induced mice migraine; assay type: in vivo, ICR mice; conditions: for blood coagulation time, in words / level of 5-HT in the brain tissue, in words / times of the tail suspension activity, in words: compared with the model group; for Blood coagulation time: reserpine 0.2 mg/kg sc mice, 1 h after final administration; for brain tissue 5-HT / Times of tail suspension (struggling times within 2 min): reserpine mice; for Times of tail suspension (struggling times within 2 min): 9th day
Procedure: The mice in the blank control group and model group were administered intragastrically via a solvent from the 5th day after modeling, and the rest groups of mice were respectively administered corresponding medicaments and doses for intragastric administration for 10 consecutive days; 1 h later after the final administration, the mice were weighed; blood was taken at inner canthus to detect blood coagulation time; whole blood was taken, and cerebrum was taken on an ice and preserved at -20° C. for the subsequent experiment.
Behavioral test: tail suspension activity was performed; the position 1 cm away from the tail of the mice was glued by an adhesive tape on the 9th day of the test, and the adhesive tape was penetrated by a steel needle, and hung in a dark box such that the mice were hung upside down; then the mice struggling times (total number of overturning from hanging) within 2 min were observed.
The mice were weighed 1 h later after the final administration; blood of inner canthus was taken via a capillary to detect the blood coagulation time.
Blood was taken to detect the content of 5-HT in serum via high-performance liquid chromatography. Cerebrum was taken on an ice and precooled and cleaned slightly with 0.5% sodium carboxymethylcellulose, and then sucked dry with a filter paper, and placed into a cryogenic tube, and preserved at -20° C. for further use, then the content of 5-HT in brain tissues was detected by high performance liquid chromatography.
5-HT test method: a sample was precipitated with 10% perchloric acid solution according to 1:1, and then centrifuged to take supernatant for test. Chromatographic conditions: the chromatographic column is a SHIMADZU VP-ODS C18 column (250*4.6 mm, 5 um), the mobile phase is a methanol-0.01 mol/L potassium acetate buffer solution (10:90, V/V, PH is adjusted to 4.00 with 0.2 mol/L citric acid) for gradient elution; the column temperature is 25° C., flow rate is 1.00 ml/min and test wavelength is 275 nm.

[3] = high dose 30 mg/kg ig once per day, 0 d
[4] = high dose 30 mg/kg ig once per day, 1 d
[5] = high dose 30 mg/kg ig once per day, 3 d
[6] = high dose 30 mg/kg ig once per day, 7 d
[7] = low dose 7.5 mg/kg ig once per day, 0 d
[8] = low dose 7.5 mg/kg ig once per day, 1 d
[9] = low dose 7.5 mg/kg ig once per day, 3 d
[10] = low dose 7.5 mg/kg ig once per day, 7 d
[11] = middle dose 15 mg/kg ig once per day, 0 d
[12] = middle dose 15 mg/kg ig once per day, 1 d
[13] = middle dose 15 mg/kg ig once per day, 3 d
[14] = middle dose 15 mg/kg ig once per day, 7 d

SMILES | pain threshold of the mice with inflammatory pain, in words [1] | Pain threshold [1, 3] | Pain threshold [1, 4] | Pain threshold [1, 5] | Pain threshold [1, 6] | Pain threshold [1, 7] | Pain threshold [1, 8] | Pain threshold [1, 9] | Pain threshold [1, 10] | Pain threshold [1, 11] | Pain threshold [1, 12] | Pain threshold [1, 13] | Pain threshold [1, 14] | Total times of hematochezia within the four periods (ulcerative colitis mice; high dose 30 mg/kg ig) | Colon length (ulcerative colitis mice; high dose 30 mg/kg ig) | IL-1 content (ulcerative colitis mice; high dose 30 mg/kg ig) | Total times of hematochezia within the four periods (ulcerative colitis mice; low dose 7.5 mg/kg ig) | Colon length (ulcerative colitis mice; low dose 7.5 mg/kg ig) | IL-1 content (ulcerative colitis mice; low dose 7.5 mg/kg ig) | Total times of hematochezia within the four periods (ulcerative colitis mice; middle dose 15 mg/kg ig) | further results
O=C(Nc1cccc(Cl)c1)C1CCN(C(=O)c2cc3cc(F)ccc3[nH]2)CC1 [MAGLZ-II-18 (a)] | significantly extend | 12.85 ± 2.26 s | 7.49±0.79^∗∗∗ s | 9.35±1.2^∗∗∗ s | 10.37±1.59^∗∗∗ s | 12.73 ± 2.43 s | 6.97±0.87^∗∗ s | 8.44±1.03^∗∗∗ s | 9.56±0.92^∗∗ s | 12.86 ± 2.25 s | 7.26±0.70^∗∗∗ s | 9.01±0.68^∗∗∗ s | 10.37±1.49^∗∗∗ s | 27.90±7.28 | 7.72±0.92 cm | 36.22 ± 4.31 pg/mL | 33.60±5.83 | 6.51±0.90 cm | 47.32 ± 9.06 pg/mL | 29.90±8.95 | Colon length (ulcerative colitis mice; middle dose 15 mg/kg ig): 7.06±1.20 cm; IL-1 content (ulcerative colitis mice; middle dose 15 mg/kg ig): 43.77 ± 10.69 pg/mL; IL-1 content, in words (ulcerative colitis mice): decrease; colon length, in words (ulcerative colitis mice): significantly increase; total times of hematochezia, in words (ulcerative colitis mice): reduce; blood coagulation time, in words [2]: significantly extend; level of 5-HT in the brain tissue, in words [2]: significantly increase; times of the tail suspension activity, in words [2]: significantly increase; Blood coagulation time ([2]; high dose 30 mg/kg ig 10 d): 252.25±30.99 S; Blood coagulation time ([2]; low dose 7.5 mg/kg ig 10 d): 137.25±67.22 S; Blood coagulation time ([2]; middle dose 15 mg/kg ig 10 d): 191.50±63.66 S; brain tissue 5-HT ([2]; high dose 30 mg/kg ig 10 d): 2.76 ± 0.34 nmol/g; Times of tail suspension (struggling times within 2 min) ([2]; high dose 30 mg/kg ig): 18.50±2.00; brain tissue 5-HT ([2]; low dose 7.5 mg/kg ig 10 d): 1.21 ± 0.17 nmol/g; Times of tail suspension (struggling times within 2 min) ([2]; low dose 7.5 mg/kg ig): 11.38±2.67; brain tissue 5-HT ([2]; middle dose 15 mg/kg ig 10 d): 1.65 ± 0.18 nmol/g; Times of tail suspension (struggling times within 2 min) ([2]; middle dose 15 mg/kg ig): 13.38±2.67
Cn1c(C(=O)N2CCC(C(=O)Nc3cccc(Cl)c3)CC2)cc2ccccc21 [MAGLZ-II-18 (c)] | significantly extend | 12.85±2.09^∗ s | 6.44±0.92^∗ s | 8.17±1.14^∗ s | 9.05±0.84^∗ s | 12.75±2.46^∗ s | 6.36±0.89^∗ s | 7.98±1.21^∗ s | 8.95±0.67^∗ s | 12.86±2.07^∗ s | 6.41±0.91^∗ s | 8.10±1.30^∗ s | 8.99±0.92^∗ s | 31.80±6.6 | 6.65±0.67 cm | 45.10 ± 8.88 pg/mL | 43.10±7.59 | 6.25±1.17 cm | 48.08 ± 13.18 pg/mL | 43.20±5.31 | Colon length (ulcerative colitis mice; middle dose 15 mg/kg ig): 6.47±0.71 cm; IL-1 content (ulcerative colitis mice; middle dose 15 mg/kg ig): 44.09 ± 9.13 pg/mL; IL-1 content, in words (ulcerative colitis mice): decrease; colon length, in words (ulcerative colitis mice): significantly increase; total times of hematochezia, in words (ulcerative colitis mice): reduce; blood coagulation time, in words [2]: significantly extend; level of 5-HT in the brain tissue, in words [2]: significantly increase; times of the tail suspension activity, in words [2]: significantly increase; Blood coagulation time ([2]; high dose 30 mg/kg ig 10 d): 237.13±28.75 S; Blood coagulation time ([2]; low dose 7.5 mg/kg ig 10 d): 148.00±30.23 S; Blood coagulation time ([2]; middle dose 15 mg/kg ig 10 d): 198.63±21.36 S; brain tissue 5-HT ([2]; high dose 30 mg/kg ig 10 d): 1.79 ± 0.32 nmol/g; Times of tail suspension (struggling times within 2 min) ([2]; high dose 30 mg/kg ig): 15.88±3.8; brain tissue 5-HT ([2]; low dose 7.5 mg/kg ig 10 d): 1.14 ± 0.22 nmol/g; Times of tail suspension (struggling times within 2 min) ([2]; low dose 7.5 mg/kg ig): 10.13±2.3; brain tissue 5-HT ([2]; middle dose 15 mg/kg ig 10 d): 1.37 ± 0.34 nmol/g; Times of tail suspension (struggling times within 2 min) ([2]; middle dose 15 mg/kg ig): 12.75±2.6
O=C(Nc1cccc(Cl)c1)C1CCN(C(=O)c2cc3ccccc3[nH]2)CC1 [MAGLZ-II-18] | significantly extend | 12.85±2.26^∗∗ s | 6.95±0.85^∗∗ s | 8.49±1.15^∗∗ s | 9.62±0.93^∗∗ s | 12.73±2.43^∗ s | 6.39±0.91^∗ s | 8.12±1.29^∗ s | 9.16±1.17^∗ s | 12.86±2.25^∗∗ s | 6.62±0.69^∗∗ s | 8.24±0.73^∗∗ s | 9.51±1.15^∗∗ s | 32.80±4.37 | 6.73±0.63 cm | 46.98 ± 7.56 pg/mL | 32.80±4.64 | 6.44±0.64 cm | 46.15 ± 9.65 pg/mL | 33.90±4.77 | Colon length (ulcerative colitis mice; middle dose 15 mg/kg ig): 6.37±0.39 cm; IL-1 content (ulcerative colitis mice; middle dose 15 mg/kg ig): 49.01 ± 5.65 pg/mL; IL-1 content, in words (ulcerative colitis mice): decrease; colon length, in words (ulcerative colitis mice): significantly increase; total times of hematochezia, in words (ulcerative colitis mice): reduce; blood coagulation time, in words [2]: significantly extend; level of 5-HT in the brain tissue, in words [2]: significantly increase; times of the tail suspension activity, in words [2]: significantly increase; Blood coagulation time ([2]; high dose 30 mg/kg ig 10 d): 241.5 ± 41.63 S; Blood coagulation time ([2]; low dose 7.5 mg/kg ig 10 d): 186.5±51.71 S; Blood coagulation time ([2]; middle dose 15 mg/kg ig 10 d): 212.63±46.02 S; brain tissue 5-HT ([2]; high dose 30 mg/kg ig 10 d): 2.08 ± 0.59 nmol/g; Times of tail suspension (struggling times within 2 min) ([2]; high dose 30 mg/kg ig): 16.51±4.38; brain tissue 5-HT ([2]; low dose 7.5 mg/kg ig 10 d): 1.13 ± 0.45 nmol/g; Times of tail suspension (struggling times within 2 min) ([2]; low dose 7.5 mg/kg ig): 11.88±4.02; brain tissue 5-HT ([2]; middle dose 15 mg/kg ig 10 d): 1.54 ± 0.54 nmol/g; Times of tail suspension (struggling times within 2 min) ([2]; middle dose 15 mg/kg ig): 13.75±4.56
